Source: patent US20080009025A1, “PROTEIN KINASE REGULATION” (priority 1999, published 2008)
Where a SMILES comes first, the peptide text is derived from it.

Biological target: T1, GST-PDK1 (Homo sapiens, UniProt O15530)
T1 construct: Full length PDK1 (residues 1-556); made in house; host or cells: 293 cells
T1 sequence (O15530 1-556): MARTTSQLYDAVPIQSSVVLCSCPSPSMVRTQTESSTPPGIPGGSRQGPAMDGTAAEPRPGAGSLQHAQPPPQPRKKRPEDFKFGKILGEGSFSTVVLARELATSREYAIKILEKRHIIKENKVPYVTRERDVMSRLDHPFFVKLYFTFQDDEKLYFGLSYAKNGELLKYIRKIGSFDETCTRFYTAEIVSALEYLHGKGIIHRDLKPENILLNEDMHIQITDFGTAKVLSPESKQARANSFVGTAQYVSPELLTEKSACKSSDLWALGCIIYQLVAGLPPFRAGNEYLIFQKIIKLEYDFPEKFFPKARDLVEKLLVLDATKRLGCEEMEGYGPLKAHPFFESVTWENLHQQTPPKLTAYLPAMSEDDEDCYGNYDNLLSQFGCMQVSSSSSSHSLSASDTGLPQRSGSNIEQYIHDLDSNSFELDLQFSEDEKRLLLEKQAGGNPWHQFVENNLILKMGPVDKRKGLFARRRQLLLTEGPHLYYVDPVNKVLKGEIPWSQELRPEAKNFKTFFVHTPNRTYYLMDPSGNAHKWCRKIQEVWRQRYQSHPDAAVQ
Assay: Thermal denaturation of PDK1 (TM50)
Type: biochemical
Conditions: wild type GST-PDK1; heated 2 min
Excerpt: A further aspect of the invention provides the use of an interacting polypeptide as defined above, for example comprising the amino acid sequence Phe/Tyr-Xaa-Xaa-Phe/Tyr or an interacting compound of the invention in a method of stabilising a protein kinase having a hydrophobic pocket in the position equivalent to the hydrophobic pocket of Protein Kinase A (PKA) that is defined by residues including Lys76, Leu116, Val80 and/or Lys111 of full-length mouse PKA, wherein the protein kinase is exposed to the compound or polypeptide. Stabilisation may be measured by measuring the TM50 value. The TM50 value is the temperature at which heating for two minutes produces a 50% reduction in protein kinase activity (measured using any appropriate substrate) compared with the protein kinase activity before such heating, as described in Example 2. An increase in the TM50 value, for example by at least about 1, 2, 3, 4, 5, 6, 7, 8, 9, 10 or 15° C. indicates stabilisation.
FIG. 12. PDK1 is activated and stabilised through its interaction with PIFtide. (A) GST-PDK1 activity was measured in the presence of increasing concentrations of wild type (wt) PIFtide (closed circles) or a mutant D978A PIFtide (open circles) using the synthetic peptide substrate termed T308tide, as described in Material and Methods. The data was fitted to a hyperbola using the Kaleidagraph™ software. […]

`CC[C@H](C)[C@H](NC(=O)[C@H](Cc1ccc(O)cc1)NC(=O)[C@H](CC(=O)O)NC(=O)[C@H](Cc1ccccc1)NC(=O)[C@H](CC(=O)O)NC(=O)[C@H](CCCNC(=N)N)NC(=O)[C@H](Cc1ccccc1)NC(=O)[C@H](CCSC)NC(=O)[C@H](CCC(=O)O)NC(=O)[C@H](CCC(N)=O)NC(=O)[C@H](CCC(=O)O)NC(=O)[C@H](CCC(=O)O)NC(=O)[C@H](CCC(=O)O)NC(=O)[C@H](CO)NC(=O)[C@H](CC(C)C)NC(=O)[C@@H](NC(=O)[C@H](CCCNC(=N)N)NC(=O)[C@@H]1CCCN1C(=O)[C@H](CCC(=O)O)NC(=O)[C@@H](N)CCCNC(=N)N)[C@@H](C)CC)C(=O)N[C@@H](C)C(=O)N[C@@H](CC(=O)O)C(=O)N[C@@H](Cc1c[nH]c2ccccc12)C(=O)N[C@@H](CS)C(=O)O` [PIFtide] (H-REPRILSEEEQEMFRDFDYIADWC-OH; N-terminus and C-terminus assumed) was tested, and the “increase of TM50” value was 8-10 °C.
